What follows are molecules tested against hPAD4 enzyme (Homo sapiens, UniProt Q9UM07) (assay: RFMS Assay 1 (rapid-fire mass spectrum PAD4 inhibition assay, BAEE substrate)). Conditions: 5 nM hPAD4 enzyme, 250 μM BAEE, 30 mins compound and enzyme preincubation at 37° C., 90 min enzyme/substrate reaction.
Format: biochemical
Method: Compounds were solubilized in 100% DMSO to achieve a 10 mM compound concentration. Compound stock solutions were stored at RT. A series of dilutions were prepared in DMSO and mixed 8 times with 20 μL mixing volume. Final top concentration of compound in the assay is 50 μM. Final assay conditions were as follows: • Reaction volume: 26 μl • Assay buffer: 25 mM hepes, pH 7.5, 5 mM NaCl, 1 mM DTT, 0.2 mg/ml BSA, 0.01% CHAPS, 50 μM Calcium, and 5 μM TPEN • Final concentrations: 5 nM hPAD4 enzyme, 250 μM BAEE, and 0.5% DMSO • Total incubation time: 30 mins compound and enzyme preincubation at 37° C., 90 min enzyme/substrate reaction, 30 min reaction with phenyl glyoxal at 37° C. • Stop solution: 40 μl 5% TCA in ACN
0.13 μL of compound solution was added to 13 μL of 10 nM PAD4 in assay buffer. After 30 min 13 μl of 500 μM of BAEE was added in 25 mM hepes, pH 7.5, 5 mM NaCl, 1 mM DTT, 0.2 mg/ml BSA, 0.01% CHAPS, 50 µM Calcium, […] was added and the reaction incubated for 90 min at 37° C. The enzymatic reaction was quenched by addition of 15 μl of 6.1N TCA, 100% Final Concentration is 20%, 35 μl of 8.5 mM phenyl glyoxal (final concentration 4 mM) is then added and the reaction is incubated for 30 min at 37° C.
After 30 minutes the plates are spun down to remove all precipitate. The enzyme reaction was quenched with an equal volume of methanol containing internal standard (modified citrulline). Samples were loaded onto the Rapid Fire RF300 system (Agilent) wherein they were first sipped for 1000 ms and then directly loaded to a C18 separations cartridge using a mixture of acetonitrile containing 0.01% formic acid for 3000 ms desalting. The flow rate of the mobile phase was 1.5 ml/min. Once the samples were eluted from the cartridge, a mobile phase of acetonitrile containing 0.01% formic acid was used to move the samples into the mass spectrometer for 4000 ms at a flow rate of 1.25 ml/min/Sciex AP15500 triple quadrupole mass spectrometer (Applied Biosystems) equipped with ESI was used to analyze the peptidyl citrulline and internal standard ions.
MRM transition of product and internal standard were monitored at m/z 424.5 to 350.4 and m/z 293 to 247 respectively. The dwell time for each transition was set at 200 ms, and the ESI voltage was used at 5500 with a source temperature of 400° C. Extracted ion peaks for each transition were integrated using the Rapid Fire Integrator software. Peak area of analyte was normalized with internal standard.).

Sequence of hPAD4 enzyme (Q9UM07 whole entry): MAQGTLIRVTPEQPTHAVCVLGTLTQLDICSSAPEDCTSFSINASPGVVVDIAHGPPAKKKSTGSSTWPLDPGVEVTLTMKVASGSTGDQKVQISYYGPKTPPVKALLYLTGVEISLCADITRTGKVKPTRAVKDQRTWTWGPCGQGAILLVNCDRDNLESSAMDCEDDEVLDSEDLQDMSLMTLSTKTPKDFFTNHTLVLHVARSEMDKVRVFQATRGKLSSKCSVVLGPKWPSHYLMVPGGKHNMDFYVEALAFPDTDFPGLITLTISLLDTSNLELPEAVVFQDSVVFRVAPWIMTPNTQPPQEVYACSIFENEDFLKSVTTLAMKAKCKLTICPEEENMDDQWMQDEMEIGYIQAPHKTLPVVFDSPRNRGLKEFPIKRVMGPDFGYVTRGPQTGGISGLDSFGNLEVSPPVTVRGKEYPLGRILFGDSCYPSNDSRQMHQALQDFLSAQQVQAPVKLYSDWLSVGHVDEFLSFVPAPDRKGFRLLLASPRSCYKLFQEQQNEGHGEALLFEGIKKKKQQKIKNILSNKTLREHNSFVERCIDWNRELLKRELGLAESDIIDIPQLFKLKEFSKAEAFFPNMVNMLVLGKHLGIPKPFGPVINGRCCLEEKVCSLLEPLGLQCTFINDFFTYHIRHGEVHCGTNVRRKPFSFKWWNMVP

Structure (SMILES)	IC50 [nM]
C[C@@H](Cn1cnc(F)c1)Oc1cccc2cc(-c3nc4cc5c(nc4n3C)CCN(C[C@H](N)CF)C5=O)n(CC3CC3)c12 [Example 66, 7-((S)-2-amino-3-fluoropropyl)-2-(1-(cyclopropylmethyl)-7-(((S)-1-(4-fluoro-1H-imidazol-1-yl)propan-2-yl)oxy)-1H-indol-2-yl)-3-methyl-3,5,6,7-tetrahydro-8H-imidazo[4,5-b][1,6]naphthyridin-8-one]	≤ 10
C[C@H](COc1cccc2cc(-c3nc4cc5c(nc4n3C)CCN(C[C@H](N)CF)C5=O)n(CC3CC3)c12)n1cnc(C#N)c1 [Example 91, 1-((R)-1-((2-(7-((S)-2-amino-3-fluoropropyl)-3-methyl-8-oxo-5,6,7,8-tetrahydro-3H-imidazo[4,5-b][1,6]naphthyridin-2-yl)-1-(cyclopropylmethyl)-1H-indol-7-yl)oxy)propan-2-yl)-1H-imidazole-4-carbonitrile]	101 to 500
C[C@H](COc1cccc2cc(-c3nc4cc5c(nc4n3C)CCN(C[C@H](N)CF)C5=O)n(CC3CC3)c12)n1cncc1C#N [Example 94, 1-((R)-1-((2-(7-((S)-2-amino-3-fluoropropyl)-3-methyl-8-oxo-5,6,7,8-tetrahydro-3H-imidazo[4,5-b][1,6]naphthyridin-2-yl)-1-(cyclopropylmethyl)-1H-indol-7-yl)oxy)propan-2-yl)-1H-imidazole-5-carbonitrile]	101 to 500
Cn1c(-c2cc3cccc(OCC(O)c4cnco4)c3n2CC2CC2)nc2cc3c(nc21)CCN(C[C@H](N)CF)C3=O (single isomer, unassigned) [Example 61a]	101 to 500
COc1nccc2cc(-c3nc4cc5c(nc4n3C)CCN(C[C@H](N)CF)C5=O)n(CC(F)(F)F)c12 [Example 21, (S)-7-(2-amino-3-fluoropropyl)-2-(7-methoxy-1-(2,2,2-trifluoroethyl)-1H-pyrrolo[2,3-c]pyridin-2-yl)-3-methyl-3,5,6,7-tetrahydro-8H-imidazo[4,5-b][1,6]naphthyridin-8-one]	> 1000
Cn1c(-c2cc3cccc(NC(=O)Cn4ccnc4)c3n2CC2CC2)nc2cc3c(nc21)CCN(C[C@H](N)CF)C3=O [Example 100, (S)—N-(2-(7-(2-amino-3-fluoropropyl)-3-methyl-8-oxo-5,6,7,8-tetrahydro-3H-imidazo[4,5-b][1,6]naphthyridin-2-yl)-1-(cyclopropylmethyl)-1H-indol-7-yl)-2-(1H-imidazol-1-yl)acetamide]	501 to 1000
CC(=O)N1CCC(c2cccc3cc(-c4nc5cc6c(nc5n4C)CCN(C[C@H](N)CF)C6=O)n(CC4CC4)c23)CC1 [Example 29, (S)-2-(7-(1-acetylpiperidin-4-yl)-1-(cyclopropylmethyl)-1H-indol-2-yl)-7-(2-amino-3-fluoropropyl)-3-methyl-3,5,6,7-tetrahydro-8H-imidazo[4,5-b][1,6]naphthyridin-8-one]	101 to 500
Cn1c(-c2cc3cccc(/C=C/Cn4cncc4F)c3n2CC2CC2)nc2cc3c(nc21)CCN(C[C@H](N)CF)C3=O [Example 98, (S,E)-7-(2-amino-3-fluoropropyl)-2-(1-(cyclopropylmethyl)-7-(3-(5-fluoro-1H-imidazol-1-yl)prop-1-en-1-yl)-1H-indol-2-yl)-3-methyl-3,5,6,7-tetrahydro-8H-imidazo[4,5-b][1,6]naphthyridin-8-one]	101 to 500
C[C@@H](COc1cccc2cc(-c3nc4cc5c(nc4n3C)CCN(C[C@H](N)CF)C5=O)n(CC3CC3)c12)n1cncc1C#N [Example 88, 1-((S)-1-((2-(7-((S)-2-amino-3-fluoropropyl)-3-methyl-8-oxo-5,6,7,8-tetrahydro-3H-imidazo[4,5-b][1,6]naphthyridin-2-yl)-1-(cyclopropylmethyl)-1H-indol-7-yl)oxy)propan-2-yl)-1H-imidazole-5-carbonitrile]	101 to 500
C[C@@H](COc1cccc2cc(-c3nc4cc5c(nc4n3C)CCN(C[C@H](N)CF)C5=O)n(CC3CC3)c12)n1ccnc1 [Example 80, 2-(7-((S)-2-(1H-imidazol-1-yl)propoxy)-1-(cyclopropylmethyl)-1H-indol-2-yl)-7-((S)-2-amino-3-fluoropropyl)-3-methyl-3,5,6,7-tetrahydro-8H-imidazo[4,5-b][1,6]naphthyridin-8-one]	11 to 100
Cn1c(-c2cc3cccc(OCCc4ccccn4)c3n2CC2CC2)nc2cc3c(nc21)CCN(C[C@H](N)CF)C3=O [Example 58, (S)-7-(2-amino-3-fluoropropyl)-2-(1-(cyclopropylmethyl)-7-(2-(pyridin-2-yl)ethoxy)-1H-indol-2-yl)-3-methyl-3,5,6,7-tetrahydro-8H-imidazo[4,5-b][1,6]naphthyridin-8-one]	101 to 500
COc1cccc2cc(-c3nc4cc5c(nc4n3C)CCN(C[C@H](N)CF)C5=O)n(CC(F)F)c12 [Example 3, (S)-7-(2-amino-3-fluoropropyl)-2-(1-(2,2-difluoroethyl)-7-methoxy-1H-indol-2-yl)-3-methyl-3,5,6,7-tetrahydro-8H-imidazo[4,5-b][1,6]naphthyridin-8-one]	101 to 500
Cn1c(-c2cc3cccc(OC[C@H]4CNS(=O)(=O)C4)c3n2CC2CC2)nc2cc3c(nc21)CCN(C[C@H](N)CF)C3=O [Example 52, 7-((S)-2-amino-3-fluoropropyl)-2-(1-(cyclopropylmethyl)-7-(((R)-1,1-dioxidoisothiazolidin-4-yl)methoxy)-1H-indol-2-yl)-3-methyl-3,5,6,7-tetrahydro-8H-imidazo[4,5-b][1,6]naphthyridin-8-one]	11 to 100

Other lines, results leading:

IC50 [nM]	Structure (SMILES)
11 to 100	Cn1c(-c2cc3cccc(OCCn4ccnc4Cl)c3n2CC2CC2)nc2cc3c(nc21)CCN(C[C@H](N)CF)C3=O [Example 93, (S)-7-(2-amino-3-fluoropropyl)-2-(7-(2-(2-chloro-1H-imidazol-1-yl)ethoxy)-1-(cyclopropylmethyl)-1H-indol-2-yl)-3-methyl-3,5,6,7-tetrahydro-8H-imidazo[4,5-b][1,6]naphthyridin-8-one]
11 to 100	Cn1c(-c2cc3cccc(OC(C)(F)Cn4ccnc4)c3n2CC2CC2)nc2cc3c(nc21)CCN(C[C@H](N)CF)C3=O (single isomer, unassigned) [Example 76b]
11 to 100	Cn1c(-c2cc3cccc(/C=C/Cn4cnc(F)c4)c3n2CC2CC2)nc2cc3c(nc21)CCN(C[C@H](N)CF)C3=O [Example 97, (S,E)-7-(2-amino-3-fluoropropyl)-2-(1-(cyclopropylmethyl)-7-(3-(4-fluoro-1H-imidazol-1-yl)prop-1-en-1-yl)-1H-indol-2-yl)-3-methyl-3,5,6,7-tetrahydro-8H-imidazo[4,5-b][1,6]naphthyridin-8-one]
11 to 100	COCCn1c(-c2nc3cc4c(nc3n2C)CCN(C[C@H](N)CF)C4=O)cc2cccc(OC(F)Cn3ccnc3)c21 (single isomer, unassigned) [Example 77a]
11 to 100	C[C@@H](Cn1ccnc1)Oc1cccc2cc(-c3nc4cc5c(nc4n3C)CCN(C[C@H](N)CF)C5=O)n(CC3CC3)c12 [Example 63, 2-(7-(((S)-1-(1H-imidazol-1-yl)propan-2-yl)oxy)-1-(cyclopropylmethyl)-1H-indol-2-yl)-7-((S)-2-amino-3-fluoropropyl)-3-methyl-3,5,6,7-tetrahydro-8H-imidazo[4,5-b][1,6]naphthyridin-8-one]
11 to 100	COCCn1c(-c2nc3cc4c(nc3n2C)CCN(C[C@H](N)CF)C4=O)cc2cccc(OC(F)Cn3ccnc3)c21 (single isomer, unassigned) [Example 77b]
≤ 10	Cn1c(-c2cc3cccc(OCCc4cccnc4)c3n2CC2CC2)nc2cc3c(nc21)CCN(C[C@H](N)CF)C3=O [Example 56, (S)-7-(2-amino-3-fluoropropyl)-2-(1-(cyclopropylmethyl)-7-(2-(pyridin-3-yl)ethoxy)-1H-indol-2-yl)-3-methyl-3,5,6,7-tetrahydro-8H-imidazo[4,5-b][1,6]naphthyridin-8-one]
11 to 100	Cn1c(-c2cc3cccc(CCCn4cnc(F)c4)c3n2CC2CC2)nc2cc3c(nc21)CCN(C[C@H](N)CF)C3=O [Example 99, (S)-7-(2-amino-3-fluoropropyl)-2-(1-(cyclopropylmethyl)-7-(3-(4-fluoro-1H-imidazol-1-yl)propyl)-1H-indol-2-yl)-3-methyl-3,5,6,7-tetrahydro-8H-imidazo[4,5-b][1,6]naphthyridin-8-one]
